Experimental data as given in patent publication US20150087657A1, “MULTICOMPONENT CRYSTALLINE SYSTEM OF VORICONAZOLE WITH FUMARIC ACID” (BASF SE, priority 2011, published 2015).
≈ marks a conversion by molar mass, not a printed value.

Experiment: Solubility determination of vrx and vrx-co-crystals in water
Type: physicochemical
Settings: 37° C.
Description: Solubility determinations of the vrx (free drug substance), the vrx-fumaric acid co-crystal and the vrx-L-tartaric acid co-crystal described in the below comparative example are carried out as follows. To 20 mg of a solid sample, 5.0 ml water is added and the mixture is placed on a laboratory shaker at 500 rpm at 37° C. After 24 hours, a small sample of about 1.0 ml is recovered with a syringe and filtered through a 0.1 micrometer PVDF Millipore filtration unit. This sample is appropriately diluted and the concentration is determined by HPLC.

| Compound | aqueous solubility higher than the free drug substance and the L-tartaric acid co-crystal (24 h, relative to table 4 comparators) | Solubility of Voriconazole (equilibration time 24 h, 20 mg solid in 5.0 ml, HPLC, value refers to Voriconazole) [µg/mL] | solubility at 24 h (thermodynamic from solid, equilibration time 24 h, 20 mg solid in 5.0 ml, HPLC, value refers to Voriconazole) [µg/mL] |
| --- | --- | --- | --- |
| CC(c1ncncc1F)C(O)(Cn1cncn1)c1ccc(F)cc1F.O=C(O)C=CC(=O)O (stereo not drawn) [Co-crystal with fumaric acid] | about 30% | 1300 |  |
| C[C@@H](c1ncncc1F)[C@](O)(Cn1cncn1)c1ccc(F)cc1F [Voriconazole free drug, (2R,3S)-2-(2,4-difluorophenyl)-3-(5-fluoropyrimidin-4-yl)-1-(1H-1,2,4-triazol-1-yl)butan-2-ol, reference compound] |  |  | 1010 (≈ 2890 µM) |
